Source: patent publication US8669232B2, “Flavonol compounds, a bioactive extract/fraction from Ulmus wallichiana and its compounds for prevention for treatment of osteo-health related disorders” (Council of Scientific & Industrial Research, priority 2008, dated 2014)

Columns and labels:
calvarial osteoblasts = experiment: BrdU cell proliferation assay; assay type: cell-based, neonatal Sprague-Dawley rats
Experimental: Neonatal rat calvarial cell cultures are prepared as described previously (Chattopadhyay et al., Endocrinology 145:3451-62, 2004) using slight modification. Briefly, for calvarial osteoblast cultures, frontal and parietal bones from neonatal Sprague-Dawley rats (1-3 day old) were digested in 0.1% collagenase/0.1% dispase in α-MEM to obtain 5 sequential digests. The second through fifth digests are combined and grown to confluence at 37° C. and 5% CO2 in air in α-MEM, supplemented with 10% fetal bovine serum (FBS), 2 mM glutamine, 100 U/ml penicillin-streptomycin, non-essential amino acid solution and sodium pyruvate.
BrdU assay is used to measure cell proliferation based on the incorporation of BrdU during DNA synthesis in proliferating cells (Chattopadhyay et al., Endocrinology 145:3451-62, 2004). […] Cells were allowed to attach for 24 h and after that cells were starved in 0.5% FCS containing α-MEM medium followed by treatment of K058 at various concentrations for 24 hrs following which cell proliferation was determined by BrdU ELISA method as described by the manufacturer (Roche Biochemicals, Rotkreuz, Switzerland). […] BrdU incubation was carried out for 4 h, cells were fixed and denatured and subsequently treated with anti-BrdU antibody and the immune complexes were detected by the substrate reaction. Absorbance was measured at 370 nm.

[1] = test system: ovariectomized Sprague Dawley rats; experiment: Uterine weight in Ovx rats (estrogen agonistic effect); assay type: in vivo; conditions: 1.0&5.0 mg/kg body weight, 90 days, uterine weight comparable with Ovx + vehicle
Experimental: Ethanolic extracts of […] at the doses of 500-& 750 mg/kg body weight were given daily by oral route to Sprague Dawley (180-200 g) rats after bilateral ovariectomy (Ovx). This is the most widely used animal model for osteopenia (bone loss) mimicking human condition of post-menopausal bone loss. The extract was given in gum acacia (vehicle). Sham operated rats and Ovx rats were used as controls and given only gum acacia. Each group consisted of 10 rats and the groups were as follows: sham intact, Ovx, Ovx+500 mg/kg extract and Ovx+750 mg/kg extract. Treatment started 24 h after the surgery and continued for 90 days. After 90 days, the rats were first acclimatized and then kept in metabolic cages with no food but only water for 24 h to collect urine samples. After 24 h, rats were returned to the cages with food and water ad libitum with oral administration of the extract as before foe an additional 24 hour. Rats were then euthanized and autopsied to collect blood, bones (tibia, femur, L1-L4 vertebrae) and uterus. […] at 1 to 10 mg/kg body weight were given daily by oral route to Sprague Dawley (180-200 g) rats after bilateral ovariectomy (Ovx). This is the most widely used animal model for osteopenia (bone loss) mimicking human condition of post-menopausal bone loss. The extract was given in gum acacia (vehicle). […]

Ishikawa cells = experiment: In vitro estrogenicity / anti-estrogenicity (ALP induction); assay type: cell-based, human; conditions: 72 h; for inhibition of increase in ALP activity stimulated by 17β-estradiol (anti-estrogenicity): 10^−11 to 10^−6 M with 10^−8 M 17β-estradiol; for ALP levels (estrogenicity): 10^−11 to 10^−6 M
Experimental: The expression of alkaline phosphatase is induced in Ishikawa cells in response to estrogen or estrogen like substances (Littlefield et al, Endocrinology. 1990 December; 127(6):2757-62.). Ishikawa cells were plated in 96-well flat bottomed microtiter plates at a density of 5000 cells/well and cultured in phenol red free DMEM containing 10% charcoal treated FCS. After 24 h of plating, cells were serum-starved for 12 h. Thereafter, for testing estrogenicity of compounds, the cells were treated with different concentrations (10^−6 to 10^−11 M) of pure compounds K058 and K012. Same concentrations of Raloxifene were also used for comparison. Estrogen concentration of 10^−8 M was used as a positive control. Compound treatments were performed for 72 h at 37° C. in CO2 incubator. Experiments were repeated 4 times. For the anti-estrogenicity studies, the compounds K012 and K058 at 10^−6 to 10^−11 M were added with 10^−8 M estrogen. After 72 h of incubation, the media was removed and the plates were washed twice with PBS and dried by tapping, gently. Freeze fracture of cells was achieved by placing the plates at −70° C. for 15, min followed by bringing to room temperature. The plates were then placed on ice and 50 μl of ice cold diethanolamine solution (5 mM P-nitrophenyl phosphate (PNP) and 0.25 mM MgCl2 in 1 M diethanolamine) was added to each well. The plates were then placed at 37° C. for 30 minutes for color (yellow) development is a function of ALP activity. Absorbance was measured at 405 nm.

estrogen agonistic action at the uterine level (uterine weight) [1] | SMILES | osteoblast proliferation (summary of in vitro effects) (calvarial osteoblasts) | inhibition of increase in ALP activity stimulated by 17β-estradiol (anti-estrogenicity) (Ishikawa cells) | ALP levels (estrogenicity) (Ishikawa cells)
no estrogen agonistic action | O=C1c2c(cc(O)c([C@@H]3OC(CO)[C@@H](O)[C@H](O)C3O)c2O)O[C@@H](c2ccc(O)c(O)c2)[C@@H]1O (stereo partly drawn) [K058, (2S,3S)-(+)-3′,4′,5,7-tetrahydroxydihydroflavonol-6-C-β-D-glucopyranoside] | promoted | did not inhibit | no increase
no estrogen agonistic action | O=c1c(O)c(-c2ccc(O)c(O)c2)oc2cc(O)c(C3O[C@H](CO)[C@@H](O)[C@H](O)[C@H]3O)c(O)c12 (some centres unmarked) [K012, 6-Glucopyranosyl-3,3′,4′,5,7-pentahydroxyflavone] | promoted | did not inhibit | no increase
